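Grown in 96-well plates, cells were treated for 48 hours with each compound at five concentrations. Insufficient inhibition: endpoint recorded as highest concentration tested. GI50 marks 50% less growth. Definition used: TGI = concentration required for complete inhibition of growth.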
Legend:
Experiment in all cases: NCI anticancer screen, dose series, 48 h
[1] = tested on: A549 NSCLC
[2] = tested on: HCC-2998 colon
[3] = tested on: HOP-62 NSCLC
[4] = tested on: IGROV1 ovarian
[5] = tested on: MALME-3M melanoma
[6] = tested on: NCI-H23 lung
[7] = tested on: NCI-H522 lung
[8] = tested on: NCI/ADR-RES ovarian
[9] = tested on: U251 CNS
[10] = tested on: UACC-257 melanoma

SMILES | TGI [1] [µM] | TGI [2] [µM] | TGI [3] [µM] | TGI [4] [µM] | TGI [5] [µM] | TGI [6] [µM] | TGI [7] [µM] | TGI [8] [µM] | TGI [9] [µM] | TGI [10] [µM] | GI50 [1] [µM] | GI50 [2] [µM] | GI50 [3] [µM] | GI50 [4] [µM] | GI50 [5] [µM] | GI50 [6] [µM] | GI50 [7] [µM] | GI50 [8] [µM] | GI50 [9] [µM] | GI50 [10] [µM]
NS(=O)(=O)c1ccc(N=Nc2c(O)c(C(=O)O)cc3ccccc23)cc1 | > 100 | > 100 | > 100 | > 100 | 65.9 | > 100 | > 100 | > 100 | > 100 | > 100 | – | – | – | – | – | – | – | – | – | –
CC1(C)OC2C(CO[Si](C)(C)C(C)(C)C)OC(n3c(I)c(C#C[Si](C)(C)C)c(=O)[nH]c3=O)C2O1 (stereo not given) | > 100 | 17.7 | > 100 | 21.5 | 18.6 | 50.9 | 2.74 | 58.3 | 65.7 | 30.1 | > 100 | 4.52 | > 100 | 7.87 | 4.62 | 18.2 | 1.38 | 20.4 | 19.4 | 13.3
CNCCOC(=O)/C=C1\CC[C@H]2[C@@H]([C@@H](O)C(=O)[C@@H]3[C@]2(C)CC[C@H](O)[C@]3(C)C(=O)OC)[C@H]1C | 0.314 | 3.63 | 0.595 | 2.23 | 1.42 | 0.644 | 0.813 | 0.444 | 1.17 | 1.73 | 0.165 | 1.35 | 0.241 | 0.438 | 0.324 | 0.245 | 0.249 | 0.22 | 0.324 | 0.479
O=C(c1ccco1)c1c(C(F)(F)F)nc2ccc(Cl)cc2[n+]1[O-] | > 100 | 46.1 | > 100 | > 100 | > 100 | > 100 | > 100 | > 100 | > 100 | > 100 | > 100 | 21.8 | > 100 | > 100 | > 100 | 69.5 | 83.1 | > 100 | > 100 | > 100
Cc1nc(Nc2cccnc2)sc1C(=O)/C=C/c1ccc(F)cc1 | > 100 | 15.5 | 7.6 | > 100 | 40 | 20.7 | 5.11 | > 100 | 8.83 | 28.6 | 3.15 | 4.09 | 2.61 | 2.85 | 5.55 | 3.93 | 2.17 | 3.24 | 2.95 | 5.87
S=c1[nH]c(=S)c2cc3ccccc3nc2[nH]1 | > 100 | > 100 | > 100 | > 100 | 45.1 | > 100 | 51.7 | > 100 | 41.6 | > 100 | > 100 | 92.3 | > 100 | 23 | 14.6 | 35 | 20.5 | > 100 | 5.98 | > 100
COC(=O)c1c2c(c(C)[n+]([O-])c1C)C(=O)C=C(NCc1ccc(F)cc1)C2=O | 3.15 | 1.77 | 3.76 | 1.61 | 0.389 | 3.41 | 3.2 | 5.38 | 2.62 | 0.822 | 0.794 | 0.442 | 1.38 | 0.363 | 0.153 | 0.733 | 0.792 | 0.432 | 0.999 | 0.258
O=C(Nc1ccc(Br)cc1F)c1cc(Cl)ccc1O | > 100 | 12.7 | 5.22 | > 100 | 2.67 | 5.14 | 4.34 | 5.67 | > 100 | 4.82 | 2.78 | 2.79 | 1.64 | 0.388 | 0.434 | 0.492 | 0.361 | 0.749 | 0.709 | 0.731
